# Reference: US7566459B2, “Modified mycobacterium tuberculosis strains and uses thereof” (priority 2005, dated 2009)
# No end group written: not given here. *: point of attachment. Palmitoyl = CCCCCCCCCCCCCCCC(=O)*
# Legend:
# [1] = biological target: T1, human TLR2 (Homo sapiens, UniProt O60603); format: cell-based
# T1 construct: using an HEK293 cell line stably transfected with cDNA encoding human TLR2
# [2] = tested on: RAW264.7 cells; format: cell-based, murine
# [3] = tested on: RAW264.7 cells; format: cell-based, murine; remark: listed apart in the source
# [4] = tested on: bone marrow derived macrophages (BMDM); format: cell-based, mice
# [5] = tested on: BMDM; test: cells; format: cell-based, mice; conditions: Mus musculus, read-out: inhibition of TNFα production (as a measure of protein synthesis)
# T1 sequence (O60603 21-784): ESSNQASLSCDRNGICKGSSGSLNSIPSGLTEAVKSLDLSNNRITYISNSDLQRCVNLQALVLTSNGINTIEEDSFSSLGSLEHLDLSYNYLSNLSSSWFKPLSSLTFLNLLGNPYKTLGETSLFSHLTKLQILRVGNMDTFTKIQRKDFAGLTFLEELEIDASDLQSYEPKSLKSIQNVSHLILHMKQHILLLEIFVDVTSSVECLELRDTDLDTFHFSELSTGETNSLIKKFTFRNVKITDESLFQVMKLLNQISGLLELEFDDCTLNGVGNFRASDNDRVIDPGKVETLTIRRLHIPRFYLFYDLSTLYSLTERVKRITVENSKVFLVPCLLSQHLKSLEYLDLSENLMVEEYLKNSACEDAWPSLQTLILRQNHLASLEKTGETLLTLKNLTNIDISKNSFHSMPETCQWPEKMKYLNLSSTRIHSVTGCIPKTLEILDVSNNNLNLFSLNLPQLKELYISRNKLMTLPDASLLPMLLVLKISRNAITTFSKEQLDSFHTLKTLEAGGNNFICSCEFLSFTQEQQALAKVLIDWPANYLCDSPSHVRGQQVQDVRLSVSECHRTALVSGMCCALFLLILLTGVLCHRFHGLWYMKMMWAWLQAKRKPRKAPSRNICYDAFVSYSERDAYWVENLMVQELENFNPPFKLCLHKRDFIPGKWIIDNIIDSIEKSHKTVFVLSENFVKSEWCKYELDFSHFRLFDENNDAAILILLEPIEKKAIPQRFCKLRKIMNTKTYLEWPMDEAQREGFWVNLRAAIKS
compound,measurement,setting,value
macrophage-activating lipopeptide-2,activation of 293-TLR2 cells / secretion of IL-8 (in words),[1],significant amounts of IL-8
"(S)-[2,3-Bis(palmitoyloxy)-(2-RS)-propyl]-(R)-Cys-(S)-Ser-(S)-Lys4×3 CF3COOH (CSKKKK; not fully specified (residue 1); also: 3 CF3COOH salt) [Pam2CSK4, diacylated analog of Pam3CSK4]",activation of 293-TLR2 cells / secretion of IL-8 (in words),[1],significant amounts of IL-8
"(S)-[2,3-Bis(palmitoyloxy)-(2-RS)-propyl]-N-palmitoyl-(R)-Cys-(S)-Ser-(S)-Lys4-OH, 3HCl (Palmitoyl-CSKKKK-OH; not fully specified (residue 1); also: 3 HCl salt) [Pam3CSK4, synthetic triacylated hexapeptide, TLR2/TLR1 agonist]",inhibition of IFNγ induction of surface MHC class II,[2],greater than 90%
same,IFNγ induction of class II transactivator (CIITA) mRNA,[3],potently inhibited
C[C@@H]1C[C@@H]([C@H](O)CC2CC(=O)NC(=O)C2)C(=O)[C@@H](C)C1 [cycloheximide],effect on ability of wild-type or ΔlspA Mycobacterium tuberculosis to inhibit IFNγ induction of CIITA gene expression,[4],prevented
same,inhibition at 0.5 µM,[5],~90%
